Molecules are shown by their SMILES. pIC50: −log10 of the molar value.

The assay deals with T1, Recombinant human Src (Homo sapiens, UniProt P12931).
T1 construct: made in house; host or cells: baculovirus-insect cell system
T1 sequence (P12931 whole entry): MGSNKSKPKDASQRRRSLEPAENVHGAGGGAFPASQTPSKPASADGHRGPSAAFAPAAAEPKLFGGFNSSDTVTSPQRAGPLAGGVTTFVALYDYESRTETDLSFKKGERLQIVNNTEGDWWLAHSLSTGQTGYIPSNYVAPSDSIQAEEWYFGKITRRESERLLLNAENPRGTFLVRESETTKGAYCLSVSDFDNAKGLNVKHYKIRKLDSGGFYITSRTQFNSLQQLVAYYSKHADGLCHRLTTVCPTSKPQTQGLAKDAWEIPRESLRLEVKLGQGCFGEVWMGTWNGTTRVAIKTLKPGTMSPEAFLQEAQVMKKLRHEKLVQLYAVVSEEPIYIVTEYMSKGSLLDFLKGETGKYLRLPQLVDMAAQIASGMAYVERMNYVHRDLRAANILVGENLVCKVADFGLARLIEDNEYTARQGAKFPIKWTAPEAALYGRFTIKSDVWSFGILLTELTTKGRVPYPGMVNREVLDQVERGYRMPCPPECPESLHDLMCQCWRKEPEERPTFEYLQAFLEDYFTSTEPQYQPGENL
The experiment in a line: Src tyrosine kinase activity assay with poly E4Y and 32P-ATP. Type of assay: biochemical. The settings on record: poly E4Y, 32P-ATP; NI = no inhibition; read-out: IC50 Value Src. The method, then: Recombinant human Src was expressed using the baculovirus-insect cell system and purified as published (Budde et al., 1993 and 2000). Recombinant Csk and the FGF receptor (FGFr) were expressed as […] fusion proteins using the pGEX expression vector and E. coli, and purified as described (Sun & Budde, 1995).
The tyrosine kinase activity of Src, Csk and FGFr was determined using poly E4Y and ^32P-ATP. Briefly, enzymes were assayed in a reaction mixture […] consisting of 0.15 M EPPS-NaOH (pH 8.0) with 6 mM MgCl2, 0.2 mM γ^32P-ATP (0.2-0.4 mCi/μmol), 10% glycerol, 0.1% Triton X-100, and poly E4Y. Poly E4Y is a synthetic peptide whose phosphorylation is measured in this assay by the addition of the radioactively labeled phosphate from the ATP (Budde et al., 1995). […] When ATP was varied (0, 50, 100 and 250 μM), poly E4Y was kept constant at 150 μg/ml.
In the case of `CCOc1cc(F)ccc1-c1sc2c(NN=Cc3cccs3)ncnc2c1CO` [Compound 107, 2-Thiophenecarboxaldehyde (6-(2-ethoxy-4-fluorophenyl)-7-hydroxymethylthieno[3,2-d]pyrimidin-4-yl)hydrazone], the pIC50 (in general, −log10 of the IC50, conventionally taken in molar units) was 7.26.

As for `CCOc1cc(F)ccc1-c1sc2c(NN=Cc3cccs3)ncnc2c1C` [Compound 106, 2-Thiophenecarboxaldehyde (6-(2-ethoxy-4-fluorophenyl)-7-methythieno[3,2-d]pyrimidin-4-yl)hydrazone], the negative logarithm of the IC50 (pIC50) was 8.02.

For the compound `CCOc1ccccc1-c1sc2c(NN=Cc3cccnc3)ncnc2c1CO` [Compound 70, 3-Pyridinecarboxaldehyde (6-(2-ethoxyphenyl)-7-hydroxymethylthieno[3,2-d]pyrimidin-4-yl)hydrazone], the pIC50 was 7.70.

With `Cc1c(-c2ccc(O)cc2)sc2c(NN=Cc3cccnc3)ncnc12` [Compound 75, 3-Pyridinecarboxaldehyde (6-(4-hydroxyphenyl)-7-methylthieno[3,2-d]pyrimidin-4-yl]hydrazone], the pIC50 is 7.68.

For `CCCOc1ccccc1-c1sc2c(NN=Cc3ccc(OC)c(O)c3)ncnc2c1C` [Compound 83, 3-Hydroxy-4-methoxybenzaldehyde (7-methyl-6-(2-propoxyphenyl)thieno[3,2-d]pyrimidin-4-yl)hydrazone], the pIC50 is 7.54.

Turning to `CCOc1ccccc1-c1sc2c(NN=Cc3cccc(F)c3)ncnc2c1C#N` [Compound 139, 3-Fluorobenzaldehyde (7-cyano-6-(2-ethoxyphenyl)thieno[3,2-d]pyrimidin-4-yl)hydrazone], the pIC50 was 8.33.

With `CCOc1ccccc1-c1sc2c(NN=Cc3nccn3C)ncnc2c1C#N` [compound 138], the pIC50 is 7.74.

For `CCOc1ccccc1-c1sc2c(NN=Cc3cccnc3)ncnc2c1C#N` [compound 67], the pIC50 was 8.92.

With `COc1ccc(C=NNc2ncnc3c(C)c(-c4ccccc4CN)sc23)cc1O` [Compound 7, 3-Hydroxy-4-methoxybenzaldehyde (6-(2-aminomethyl)phenyl-7-methylthieno[3,2-d]pyrimidin-4-yl)hydrazone], the negative-log IC50 (pIC50) is 6.92.

With `CCOc1ccccc1-c1sc2c(NN=Cc3cc(OC)c(OC)c(OC)c3)ncnc2c1C` [Compound 63, 3,4,5-Trimethoxybenzaldehyde (6-(2-ethoxyphenyl)-7-methylthieno[3,2-d]pyrimidin-4-yl)hydrazone], the pIC50 is 8.89.

As to `Cc1nc[nH]c1C=NNc1ncnc2c(C)c(CN3CCOCC3)sc12` [Compound 16, 4-Methyl-5-imidazolecarboxaldehyde (7-methyl-6-(morpholin-4-yl)methyllthieno[3,2-d]pyrimidin-4-yl)hydrazone], the pIC50 is 6.21.

Regarding `CCOc1ccccc1-c1sc2c(NN=Cc3ccc(OC)c(O)c3)ncnc2c1COCC(O)CO` (racemic) [Compound 56, 3-Hydroxy-4-methoxybenzaldehyde(7-((±)-4,5-dihydroxy-2-oxopentyl) (6-(2-ethoxyphenyl)thieno[3,2-d]pyrimidin-4-yl)hydrazone], the pIC50 was 6.92.

As for `CCOc1ccccc1-c1sc2c(NN=Cc3ccc(O)c(Cl)c3)ncnc2c1C#N` [compound 90], the negative-log IC50 (pIC50) was 8.68.

As to `Cc1c(-c2ccc(C(N)=O)cc2)sc2c(NN=Cc3cccnc3)ncnc12` [Compound 24, 3-Pyridinecarboxaldehyde (6-(4-aminocarbonylphenyl)-7-methylthieno[3,2-d]pyrimidin-4-yl)hydrazone], the pIC50 was 7.89.

As for `CCOc1ccccc1-c1sc2c(NN=Cc3cccnc3)ncnc2c1O` [Compound 73, 3-Pyridinecarboxaldehyde (6-(2-ethoxyphenyl)-7-hydroxythieno[3,2-d]pyrimidin-4-yl)hydrazone], the pIC50 is 8.52.

As to `CCOc1ccccc1-c1sc2c(NN=Cc3ccc(OC)c(O)c3)ncnc2c1CC` [compound 35], the pIC50 is 7.85.

Turning to `COc1ccc(C=NNc2ncnc3c(C)c(-c4cccc(CN5CCOCC5)c4)sc23)cc1O` [Compound 17, 3-Hydroxy-4-methoxybenzaldehyde (7-methyl-6-(3-(morpholin-4-yl)methyl)phenylthieno[3,2-d]pyrimidin-4-yl)hydrazone], the negative-log IC50 (pIC50) is 7.59.

On to `CCOc1ccccc1-c1sc2c(NN=Cc3ccc(N(C)C)cc3)ncnc2c1O` [Compound 133, 4-N,N-Dimethylaminobenzaldehyde (6-(2-ethoxyphenyl)-7-hydroxythieno[3,2-d]pyrimidin-4-yl)hydrazone], for which the pIC50 is 8.21.

On to `CCOc1ccccc1-c1sc2c(NN=Cc3cc(OC)c(O)c(OC)c3)ncnc2c1C#N` [compound 94], for which the pIC50 was 9.47.

On to `CCOc1ccccc1-c1sc2c(NN=Cc3ccc(O)cc3)ncnc2c1C#N` [compound 102], for which the pIC50 is 8.82.

Take `CCOc1ccccc1-c1sc2c(NN=Cc3[nH]cnc3C)ncnc2c1C#N` [compound 115]: the pIC50 is 8.59.

Regarding `Cc1c(-c2ccc(N)cc2)sc2c(NN=Cc3cccs3)ncnc12` [Compound 9, 2-Thiophenecarboxaldehyde (6-(4-aminophenyl)-7-methylthieno[3,2-d]pyrimidin-4-yl)hydrazone], the negative logarithm of the IC50 (pIC50) was 7.72.

In the case of `Cc1c(-c2cccc(C(=N)N)c2)sc2c(NN=Cc3cccnc3)ncnc12` [Compound 32], the pIC50 is 7.39.

On to `Cc1c(-c2cccc(CN)c2)sc2c(NN=Cc3cccnc3)ncnc12` [Compound 6, 3-Pyridinecarboxaldehyde (6-(3-aminomethyl)phenyl-7-methylthieno[3,2-d]pyrimidin-4-yl)hydrazone], for which the pIC50 was 7.80.

For `CCOc1ccccc1-c1sc2c(NN=Cc3c[nH]c(=O)[nH]c3=O)ncnc2c1C#N` [compound 111], the pIC50 is 7.92.

For `COc1ccc(C=NNc2ncnc3c(C)c(-c4ccccc4N)sc23)cc1O` [Compound 13, 3-Hydroxy-4-methoxybenzaldehyde (6-(2-aminophenyl)-7-methylthieno[3,2-d]pyrimidin-4-yl)hydrazone], the pIC50 was 7.42.

For `C=CCOc1ccccc1-c1sc2c(NN=Cc3ccc(OC)c(O)c3)ncnc2c1C` [Compound 80, 3-Hydroxy-4-methoxybenzaldehyde (6-(2-allyloxyphenyl)-7-methylthieno[3,2-d]pyrimidin-4-yl)hydrazone], the pIC50 was 8.19.

As to `CCOc1ccccc1-c1sc2c(NN=Cc3ccc(C)s3)ncnc2c1O` [Compound 128, 5-Methyl-2-thiophenecarboxaldehyde (6-(2-ethoxyphenyl)-7-hydroxythieno[3,2-d]pyrimidin-4-yl)hydrazone], the pIC50 is 8.55.

For the compound `Cc1c(-c2ccc(N)cc2)sc2c(NN=Cc3cccnc3)ncnc12` [Compound 8, 3-Pyridinecarboxaldehyde (6-(4-aminophenyl)-7-methylthieno[3,2-d]pyrimidin-4-yl)hydrazone], the pIC50 is 8.02.

Regarding `CCOc1ccccc1-c1sc2c(NN=Cc3c[nH]c(=O)[nH]c3=O)ncnc2c1O` [Compound 113, 2,4-Dioxo-1,2,3,4-tetrahydro-pyrimidine-5-carbaldehyde (6-(2-ethoxyphenyl)-7-hydroxythieno[3,2-d]pyrimidin-4-yl)hydrazone], the pIC50 was 7.55.

On to `CCOc1ccccc1-c1sc2c(NN=Cc3ccc(C(=O)O)cc3)ncnc2c1O` [Compound 74, 4-Carboxybenzaldehyde (6-(2-ethoxyphenyl)-7-hydroxythieno[3,2-d]pyrimidin-4-yl)hydrazone], for which the pIC50 was 9.54.

Take `CCOc1ccccc1-c1sc2c(NN=Cc3ccc(F)cc3)ncnc2c1C#N` [compound 135]: the pIC50 is 8.40.

Consider `CCOc1cc(F)ccc1-c1sc2c(NN=Cc3ccc(OC)c(O)c3)ncnc2c1O` [Compound 61, 3-Hydroxy-4-methoxybenzaldehyde (6-(2-ethoxy-4-fluorophenyl)-7-hydroxythieno[3,2-d]pyrimidin-4-yl)hydrazone], for which the negative logarithm of the IC50 (pIC50) is 8.22.

For the compound `Cc1c(-c2cccc(C(N)=O)c2)sc2c(NN=Cc3cccs3)ncnc12` [Compound 20, 2-Thiophenecarboxaldehyde (6-(3-aminocarbonylphenyl)-7-methylthieno[3,2-d]pyrimidin-4-yl)hydrazone], the pIC50 was 7.27.

As for `CCOc1ccccc1-c1sc2c(NN=Cc3cccc(C(=O)O)c3)ncnc2c1C#N` [compound 114], the pIC50 was 8.49.

`COc1ccc(C=NNc2ncnc3c(C)c(-c4cccc(N)c4)sc23)cc1O` [Compound 12, 3-Hydroxy-4-methoxybenzaldehyde (6-(3-aminophenyl)-7-methylthieno[3,2-d]pyrimidin-4-yl)hydrazone]: the pIC50 is 8.92.

For the compound `CCOc1ccccc1-c1sc2c(NN=Cc3ccc(OC)c(O)c3)ncnc2c1C#N` [compound 47], the pIC50 was 8.82.

With `CCOc1ccccc1-c1sc2c(NN=Cc3ccc(NC(C)=O)cc3)ncnc2c1O` [Compound 132, 4-Acetamidobenzaldehyde (6-(2-ethoxyphenyl)-7-hydroxythieno[3,2-d]pyrimidin-4-yl)hydrazone], the pIC50 was 8.62.

On to `CCNc1ccc(-c2sc3c(NN=Cc4ccc(OC)c(O)c4)ncnc3c2C)cc1` [Compound 48, 3-Hydroxy-4-methoxybenzaldehyde (6-(4-N-ethylaminophenyl)-7-methylthieno[3,2-d]pyrimidin-4-yl)hydrazone], for which the pIC50 was 7.19.

As to `Cc1c(-c2cccc(N)c2)sc2c(NN=Cc3cccnc3)ncnc12` [Compound 11, 3-Pyridinecarboxaldehyde (6-(3-aminophenyl)-7-methylthieno[3,2-d]pyrimidin-4-yl)hydrazone], the pIC50 was 8.31.

These data come from US20060004002A1 (priority 2004, published 2006).
